pIC50: −log10 of the molar value. Read-outs that look alike come from different tables or passages of the source.
How the values were obtained:
NF-κB [1] = experiment: Jurkat NF-κB-luciferase reporter cell assay, TNF-alpha stimulation; format: cell-based; conditions: Jurkat reporter cells
Description: (§1) Alternatively, Jurkat NF-κB reporter cells were seeded at 30,000 cells per/ml in 384-well microtiter plates. Recombinant retroviruses encoding wild-type IKK-beta or NF-κB p65 were generated and used to transduce Jurkat reporter cells. Untransduced cells were treated with 1, 2 or 5 mM salicylate for 30 minutes prior to stimulation with TNF-alpha (10 ng/ml).
Cell Plating: Jurkat NF-κB reporter cells were seeded at 5 μL per well in Greiner 1536-well micro-plates using the Cartesian synQUAD. Settings for the 24,000 step motor were such that a 100 μL syringe would provide a volume per step of 4.2 nL; timing was controlled by a master dispenser solenoids and stepper motors which moved the stage and controlled the syringe pumps. The result was extremely rapid “on-the-fly” dispensing, similar to an inkjet printer. […]
Compound addition: Four Falcon 384-well plates containing compounds (Aldrich) dissolved in dimethylsulfoxide (DMSO) to a final concentration of 1 mM (excepting the last two columns which were just DMSO) were transferred to the Jurkat reporter cells. […] Coefficients of variation (CVs) before and after compound addition was determined by transferring liquid from a FITC solution bath to 384 well plates and read on the LJL Acquest in fluorescence modality.

NF-κB [2] = experiment: HEK293 NF-κB-luciferase reporter gene assay, TNF-alpha stimulation
Description: Day 7: HEK293 and Jurkat NF-κB reporter cells were plated and treated with a dose-response of human TNF-alpha for 2 to 24 hours, lysed and treated with Bright-Glo luciferase reagent (Promega) and luminescence measured with the LJL Acquest luminometer.
(§2) HEK293T NF-κB reporter cells were seeded at 7000 cells/well in 384-well plates in triplicate. Eighteen hours later, cells were treated with TNF-alpha (10 ng/mL) in the absence of or presence of 1, 2 or 5 mM sodium salicylate. Cells in other wells were transfected with mammalian expression vectors encoding wild-type human IKK-beta (50 ng) or NF-κB p65 (10 ng) by calcium phosphate. Eight hours post transfection, fresh medium was added with 1, 2 or 5 mM sodium salicylate and incubated for an additional 16 hours. At 24 hours post TNF addition or post transfection, cells were lysed and incubated with Bright-Glo (Promega) and Relative Light Units (RLUs) were determined using the LJL Acquest luminometer.
Stimulus and detection addition: After 30 minute incubation with compounds, a solution of TNF-alpha (Sigma) diluted to 60 ng/ml and transferred to cells using the Cartesian synQUAD such that 1 μL of stimulus was added per well to a final dilution of approximately 10 ng/ml final. […] Cells were incubated with the Alamar Blue for three hours then read on the LJL Acquest in fluorescence mode at 100,000 us/well. […] Precisely five minutes after addition of Bright-Glo, the cell plate was read in luminescence mode in the LJL Acquest at 100,000 us per well. Wells treated with compounds in which fluorescent signals were >90% of the mean across the plate, and below 50% of the mean across the plate for luminescence were identified and compounds hit picked for future studies. […] IC50 values were also determined in the HEK293 NF-κB reporter gene assay in the same manner.
(§3) HEK293 NF-κB reporter cells were plated in 96-well plates at 28,000 cells/well in D'MEM media containing 10% FBS, pen-strep antibiotics and 1 mM glutamine. […] After 24 hours, samples were treated with Bright-Glo and analyzed using the LJL Acquest luminometer.

NF-κB [3] = conditions: Jurkat reporter cells, stable retroviral over-expression, 1, 2 or 5 mM
Description: as §1, with “ng/ml). For transduced cells, 4 hours post retroviral incubation, cells were treated with either 0, 1, 2 or 5 mM salicylic acid.” for “ng/ml).”

NF-κB [4] = experiment: In cellulo competition: over-expression of TNF/NF-κB pathway cDNAs in HEK293 NF-κB reporter cells; conditions: for Effect of over-expressed IKK-beta or NF-κB p65 on the compound's inhibition of the NF-κB reporter: transient over-expression, 1, 2 or 5 mM
Description: as §2
Screening and Small Complementation: HEK293 NF-κB reporter cells were plated at 7000 cells/well in 384-well Greiner clear bottom plates using a Titertek Multidrop. Cells were incubated for 8 hours before transfection of the cDNA libraries. […] Thirty minutes compound treatment, The Hydra was used again to mix two μL DNA with 8 ul of a premixed solution 61 μl 2m CaC12, 440 μH20 distributed into a 384-well intermediate plate. Then, 10 ul of a 2× Hepes Buffered Saline solution (HBS, pH 7.0) was mixed with the DNA and pipetted automatically for 5 seconds followed by 10 μL addition of the transfection solution to HEK293 NF-κB reporter cells. After transfected plates of cells were incubated at 37° C. for 16 hours, Bright-Glo was added to each well using a twelve-head multi-channel pipettor, incubated for five minutes then read on the LJL Acquest in luminescence mode. Controls used in this experiment were limited to p65, IKK-beta, NIK and IKK-alpha. Additionally, retroviral vectors encoding firefly luciferase alone were plated in 384-wells and transfected into wild-type HEK293 cells to determine transfection efficiency and CVs.
as §3

In the case of TNF-alpha, the “Induction of NF-κB reporter luciferase” value (NF-κB [1]; dose-response, 2 to 24 hours) was “inducible” and the “Induction of NF-κB reporter luciferase” value (NF-κB [2]; HEK293 reporter cells, dose-response, 2 to 24 hours) was “inducible”.
`O=C(O)c1ccccc1O` [Salicylate, salicylic acid] was tested, and the “Block of TNF induction of NF-κB reporter” value (NF-κB [1]; TNF-alpha 10 ng/ml, 1, 2 or 5 mM salicylate) was “block TNF induction of NF-κB”, the “Effect of over-expressed IKK-beta or NF-κB p65 on the compound's inhibition of the NF-κB reporter” value (NF-κB [3]) was “over-expression of cDNA encoding human IKK-beta diminished the inhibitory effects” and the “Effect of over-expressed IKK-beta or NF-κB p65 on the compound's inhibition of the NF-κB reporter” value (NF-κB [3]; listed as salicyclic acid) was “over-expression of IKK-beta, but not NF-κB p65, could titrate out the effect”. The “Block of TNF induction of NF-κB reporter” value (NF-κB [2]; HEK293 reporter cells, TNF-alpha 10 ng/mL, 1, 2 or 5 mM sodium salicylate) was “block TNF induction of NF-κB”, the “Effect of over-expressed IKK-beta or NF-κB p65 on the compound's inhibition of the NF-κB reporter” value (NF-κB [4]) was “over-expression of cDNA encoding human IKK-beta diminished the inhibitory effects” and the “Effect of over-expressed IKK-beta or NF-κB p65 on the compound's inhibition of the NF-κB reporter” value (NF-κB [4]; listed as salicyclic acid) was “over-expression of IKK-beta, but not NF-κB p65, could titrate out the effect”.
With `CC(=O)c1c(O)c(C)c(O)c(Cc2c(O)c3c(c(C(=O)/C=C/c4ccccc4)c2O)OC(C)(C)C=C3)c1O` [Rottlerin] the pIC50 (NF-κB [2]; Homo sapiens, HEK293, read-out: IC50 concentration, NF-κB reporter gene assay) was 7.30 and the “Block of NF-κB reporter signals induced by TNF or over-expressed TNFR, TRAF2, NIK, IKK-beta, IKK-alpha, p65” value (NF-κB [4]; compound at its IC50 concentration, 24 hours) was “able to block signals induced by TNF, TNFR, but not TRAF2”.
